Reference: patent US5462952A, “Fenamate 1,3,4-thiadiazoles and 1,3,4-oxadiazoles as antiinflammatory agents” (Warner-Lambert Company, priority 1993, dated 1995)
Where a name gives a salt, the structure may show the parent alone. Read-outs that look alike come from different tables or passages of the source. Values belong to the compound of their own block, whether it stands above or below them.

Key:
5-Lipoxygenase = biological target: T1, 5-Lipoxygenase (Rattus norvegicus, UniProt P12527); experiment: ARBL whole cell 5-lipoxygenase assay (LTB4 formation in RBL-1 cells, A23187-stimulated); format: cell-based; design: key to ARBL, activity at the screening dose: Not active at the screening dose; settings: for ARBL, activity at the screening dose: Table 2, screening dose, class symbol N; for IC50: Table 2; for inhibition at 10 µM: Table 2, @ 10 μM
T1 construct: host or cells: RBL-1 (rat basophilic leukemia)
T1 sequence (P12527 1-673): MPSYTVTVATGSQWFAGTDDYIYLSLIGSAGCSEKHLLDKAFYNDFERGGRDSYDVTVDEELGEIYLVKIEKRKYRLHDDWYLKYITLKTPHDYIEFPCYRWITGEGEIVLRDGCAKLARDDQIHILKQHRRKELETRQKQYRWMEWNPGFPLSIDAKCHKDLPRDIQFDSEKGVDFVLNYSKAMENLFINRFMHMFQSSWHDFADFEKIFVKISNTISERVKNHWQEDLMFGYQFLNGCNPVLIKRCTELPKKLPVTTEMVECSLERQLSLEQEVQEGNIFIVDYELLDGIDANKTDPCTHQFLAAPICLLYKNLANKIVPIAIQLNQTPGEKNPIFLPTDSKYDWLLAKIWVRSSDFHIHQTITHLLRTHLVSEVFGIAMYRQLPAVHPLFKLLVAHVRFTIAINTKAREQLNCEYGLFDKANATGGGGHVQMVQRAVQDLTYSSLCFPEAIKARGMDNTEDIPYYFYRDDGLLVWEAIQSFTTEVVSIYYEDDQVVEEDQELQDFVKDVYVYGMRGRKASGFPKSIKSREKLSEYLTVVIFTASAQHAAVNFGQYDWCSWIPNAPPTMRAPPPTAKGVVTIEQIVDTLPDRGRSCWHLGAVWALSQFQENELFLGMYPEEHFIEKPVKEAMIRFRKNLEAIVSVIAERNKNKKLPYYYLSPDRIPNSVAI
Procedure: (§1) The rat basophilic leukemia cell line (RBL-1) was obtained from the American Type Culture Collection (Rockville, Md.).
(§2) Radioimmunoassay (RIA) kits of LTB4 and PGF2α were obtained from Amersham (Arlington Heights, Ill.) and Seragen (Boston, Mass.), respectively.
(§3) RBL-1 cells are grown in suspension culture in Eagle's minimum essential medium supplemented with 12% fetal bovine serum at 37° C. in an incubator supplied with air-5% carbon dioxide. Cells are harvested by centrifugation. They are washed with cold phosphate buffered saline pH 7.4 (PBS; NaCl, 7.1 g; Na2 HPO4, 1.15 g; KH2 PO4, 0.2 g; and KCl, 0.2 g/l). Cells are finally suspended in PBS containing 1.0 mM calcium at a density of 2×10^6 cells/ml. Cells are incubated with and without test agent (in DMSO) (1% DMSO is without effect on arachidonic acid metabolism) for ten minutes at room temperature. Calcium ionophore A23187 (5 μM) is added and cells are incubated for seven minutes at 37° C. The reaction is stopped by chilling the tubes on ice for ten minutes. Cells are separated by centrifugation and the supernatant is stored at -20°. Aliquots (100 μl) are analyzed for LTB4 and PGF2α using radioimmunoassay kits as provided by the supplier.
(§4) Tables 1 and 2 contain biochemical data obtained from the whole cell assay described above as IC50 s which are calculated as the concentration of test compound causing 50% inhibition of LTB4 or PGF2α formation. Table 2 also provides the dose at which 40% of swelling is inhibited in the CFE-2 assay.

Cyclooxygenase = experiment: ARBC whole cell cyclooxygenase assay (PGF2α formation in RBL-1 cells, A23187-stimulated); format: cell-based, rat; design: key to ARBC, activity at the screening dose: Not active at the screening dose; settings: for ARBC, activity at the screening dose: Table 2, screening dose
Procedure: as §1, §2, §3, §4

[1] = system: Carrageenan-Induced Rat Foot Paw Edema; experiment: Carrageenan-Induced Rat Foot Paw Edema-2 (CFE-2) Assay; format: in vivo; settings: 5 h, Table 2, dosed one hour before carrageenan, edema at five hours, probit analysis, read-out: CFE, ID40 (dose at which 40% inhibition of swelling occurs)
Procedure: Carrageenan solution (1% w/v) is prepared by dissolving 100 mg carrageenan (Marine Colloidal Div., Springfield, N.J.) in 10 ml of sterile saline (0.9%) solution (Travenol). The solution is vortexed for 30 to 45 minutes. Animals are dosed with compound one hour before carrageenan challenge. Foot paw edema is induced by injecting 0.10 ml of the 1% carrageenan subcutaneously into the plantar portion of the right hind paw of each rat under light anesthesia. Initial foot paw volume is measured immediately following carrageenan challenge using mercury plethysmography (Buxco Electronics). Edema is measured five hours after carrageenan. The difference between the 5-hour and the initial paw volume is expressed as delta edema. The delta edema for each test group of animals is used to calculate the percent inhibition of edema achieved by the compound at the test dose compared with the vehicle control group. The data in Table 1 (the dose at which swelling is inhibited by the noted) is calculated by probit analysis for the dose at which 40% inhibition occurs.
as §4

[2] = Table 1, 16 μM, read-out: ARBL, % inhibition of LTB4 at 16 μM
[3] = read-out: ARBL, % inhibition at given concentration

IC50 (5-Lipoxygenase): 770 nM
IC50 (Cyclooxygenase; Table 2): 270 nM
Compound: FC(F)(F)c1cccc(Nc2ccccc2-c2n[nH]c(=S)o2)c1 [Example 6, 5-[2-[[3-(Trifluoromethyl)phenyl]amino]phenyl]-1,3,4-oxadiazol-2(3H)-thione]
ED40 [1]: 8.5 mg/kg

IC50 (5-Lipoxygenase): 690 nM
IC50 (Cyclooxygenase; Table 2): 11000 nM
Compound: Nc1nnc(-c2ccccc2Nc2cccc(C(F)(F)F)c2)s1 [Example 10, 5-[2-[(3-Trifluoromethylphenyl)amino]phenyl]-1,3,4-thiadiazol-2-amine]

IC50 (5-Lipoxygenase): 870 nM
IC50 (Cyclooxygenase; Table 2): 850 nM
Compound: FC(F)(F)c1cccc(Nc2ccccc2-c2n[nH]c(=S)s2)c1 [Example 12, 5-[2-[(3-Trifluoromethylphenyl)amino]phenyl]-1,3,4-thiadiazole-2(3H)-thione]
ED40 [1]: 4.7 mg/kg

IC50 (5-Lipoxygenase): 680 nM
IC50 (Cyclooxygenase; Table 2): 7120 nM
Compound: Nc1nnc(-c2ccccc2Nc2cccc(C(F)(F)F)c2)o1 [Example 16, 5-[2-[[3-(Trifluoromethyl)phenyl]amino]phenyl]-1,3,4-oxadiazol-2-amine]

ARBL, activity at the screening dose (5-Lipoxygenase): N
Compound: CSc1nnc(-c2ccccc2Nc2cccc(C(F)(F)F)c2)o1 [Example 24, N-[2-[5-(Methylthio)-1,3,4-oxadiazol-2-yl]phenyl]-3-trifluoromethyl benzenamine]
ARBC, % inhibition at given concentration (Cyclooxygenase; Table 2, @ 10 μM): 44%

ARBL, activity at the screening dose (5-Lipoxygenase): N
Compound: CS(=O)(=O)c1nnc(-c2ccccc2Nc2cccc(C(F)(F)F)c2)o1 [Example 25, N-[2-[5-(Methylsulfonyl)-1,3,4-oxadiazol-2-yl]phenyl]-3-trifluoromethyl benzenamine]
ARBC, % inhibition at given concentration (Cyclooxygenase; Table 2, @ 10 μM): 48%

IC50 (Cyclooxygenase; Table 2): 1040 nM
Compound: N#CNc1nnc(-c2ccccc2Nc2cccc(C(F)(F)F)c2)o1 [Example 26, 5-[2-[[3-(Trifluoromethyl)phenyl]amino]phenyl]-1,3,4-oxadiazol-2-yl-cyanamide]

inhibition at 10 µM (5-Lipoxygenase; [3]): 100%
Compound: N=C(N)Nc1nnc(-c2ccccc2Nc2cccc(C(F)(F)F)c2)o1 [Example 27, 5-[2-[[3-(Trifluoromethyl)phenyl]amino]phenyl]-1,3,4-oxadiazol-2-yl-guanidine hydrochloride]
ARBC, activity at the screening dose (Cyclooxygenase; class symbol N): N

inhibition at 10 µM (5-Lipoxygenase; [3]): 66%
Compound: CSc1nnc(-c2ccccc2Nc2cccc(C(F)(F)F)c2)s1 [Example 30, 3-Trifluoromethyl-N-[2-[5-(methylthio)-1,3,4-thiadiazol-2-yl]phenyl]benzenamine]
ARBC, % inhibition at given concentration (Cyclooxygenase; Table 2, @ 10 μM): 44%

inhibition at 10 µM (5-Lipoxygenase; [3]): 100%
Compound: C[S+]([O-])c1nnc(-c2ccccc2Nc2cccc(C(F)(F)F)c2)s1 (stereo not shown) [Example 31]
ARBC, % inhibition at given concentration (Cyclooxygenase; Table 2, @ 10 μM): 51%

Second part, the compound before the results:

Compound: Cc1ccc(Cl)c(Nc2ccccc2-c2n[nH]c(=O)o2)c1Cl [Example 1]
ARBL, activity at the screening dose (5-Lipoxygenase): N
ARBC, activity at the screening dose (Cyclooxygenase; class symbol N): N

Compound: Cc1ccc(Cl)c(Nc2ccccc2-c2n[nH]c(=S)o2)c1Cl [Example 2, 5-[2-[(2,6-Dichloro-3-methylphenyl)amino]phenyl]-1,3,4-oxadiazol-2(3H)-thione]
inhibition at 16 µM (5-Lipoxygenase; [2]): 97%
IC50 (5-Lipoxygenase): 740 nM
IC50 (Cyclooxygenase; Table 1, footnote c): 700 nM
IC50 (Cyclooxygenase; Table 2): 700 nM

Compound: Cc1ccc(Cl)c(Nc2ccccc2-c2nnc(N)s2)c1Cl [Example 4, 5-[2-[(2,6-Dichloro-3-methylphenyl)amino]phenyl]-1,3,4-thiadiazol-2-amine]
IC50 (5-Lipoxygenase): 600 nM
IC50 (Cyclooxygenase; Table 1, footnote c): 6100 nM
IC50 (Cyclooxygenase; Table 2): 6100 nM

Compound: Cc1ccc(Cl)c(Nc2ccccc2-c2n[nH]c(=S)s2)c1Cl [Example 5, 5-[2-[(2,6-Dichloro-3-methylphenyl)amino]phenyl]-1,3,4-thiadiazol-2(3H)-thione]
inhibition at 16 µM (5-Lipoxygenase; Table 2, @ 16 μM, read-out: ARBL, % inhibition at given concentration): 100%
ARBC, % inhibition at given concentration (Cyclooxygenase; Table 2, @ 16 μM): 47%

Compound: S=c1[nH]nc(Cc2ccccc2Nc2c(Cl)cccc2Cl)o1 [Example 7, 5-[[2-[(2,6-Dichlorophenyl)amino]phenyl]methyl]-1,3,4-oxadiazol-2(3H)-thion]
inhibition at 16 µM (5-Lipoxygenase; [2]): 88%
ARBC, % inhibition of PGF2α at 16 μM (Cyclooxygenase; Table 1, 16 μM, class symbol N): N (Less than 40% inhibition at 16 μM)

Compound: Cc1cccc(Nc2ccccc2-c2n[nH]c(=O)o2)c1C [Example 8, 5-[2-[(2,3-Dimethylphenyl)amino]phenyl]-1,3,4-oxadiazol-2(3H)-one]
ARBL, activity at the screening dose (5-Lipoxygenase): N
ARBC, activity at the screening dose (Cyclooxygenase; class symbol N): N

Compound: Cc1cccc(Nc2ccccc2-c2n[nH]c(=S)o2)c1C [Example 9, 5-[2-[(2,3-Dimethylphenyl)amino]phenyl]-1,3,4-oxadiazole-2(3H)-thione]
IC50 (5-Lipoxygenase): 1000 nM

Compound: Cc1ccc(Cl)c(Nc2ccccc2-c2nnc(N)o2)c1Cl [Example 17, 5-[2-[[2,6-Dichloro-3-methylphenyl]amino]phenyl]-1,3,4-oxadiazol-2-amine]
inhibition at 10 µM (5-Lipoxygenase; [3]): 45%
ARBC, activity at the screening dose (Cyclooxygenase; class symbol N): N

Compound: Cc1ccc(Cl)c(Nc2ccccc2-c2nnco2)c1Cl [Example 18, 2,6-Dichloro-3-methyl-N-[2-(1,3,4-oxadiazol-2-yl)phenyl]benzenamine]
ARBL, activity at the screening dose (5-Lipoxygenase): N
ARBC, activity at the screening dose (Cyclooxygenase; class symbol N): N

Compound: CSc1nnc(-c2ccccc2Nc2c(Cl)ccc(C)c2Cl)o1 [Example 19, 2,6-Dichloro-3-methyl-N-[2-[5-(methylthio)-1,3,4-oxadiazol-2-yl]phenyl]benzenamine]
ARBL, activity at the screening dose (5-Lipoxygenase): N
ARBC, % inhibition at given concentration (Cyclooxygenase; Table 2, @ 10 μM): 55%

Compound: Cc1ccc(Cl)c(Nc2ccccc2-c2nnc(S(C)(=O)=O)o2)c1Cl [Example 20, 2,6-Dichloro-3-methyl-N-[2-[5-(methylsulfonyl)-1,3,4-oxadiazol-2-yl]phenyl]benzenamine]
IC50 (5-Lipoxygenase): 6320 nM
IC50 (Cyclooxygenase; Table 2): 3000 nM

Compound: Cc1ccc(Cl)c(Nc2ccccc2-c2nnc([S+](C)[O-])o2)c1Cl (stereo not shown) [Example 21, 2,6-Dichloro-3-methyl-N-[2-[5-(methylsulfinyl)-1,3,4-oxadiazol-2-yl]phenyl]benzenamine]
IC50 (5-Lipoxygenase): 910 nM
IC50 (Cyclooxygenase; Table 2): 1790 nM

Compound: Cc1ccc(Cl)c(Nc2ccccc2-c2nnc(NC(=N)N)o2)c1Cl [Example 22, 5-[2-[(2,6-dichloro-3-methylphenyl)amino]phenyl]-1,3,4-oxadiazol-2-yl-guanidine monohydrochloride]
inhibition at 10 µM (5-Lipoxygenase; [3]): 46%
ARBC, activity at the screening dose (Cyclooxygenase; class symbol N): N

Compound: Cc1ccc(Cl)c(Nc2ccccc2-c2nnc(NC#N)o2)c1Cl [Example 23, 5-[2-[(2,6-Dichloro-3-methylphenyl)amino]phenyl]-1,3,4-oxadiazol-2-yl-cyanamide]
IC50 (5-Lipoxygenase): 890 nM
IC50 (Cyclooxygenase; Table 2): 250 nM

Compound: CSc1nnc(-c2ccccc2Nc2c(Cl)ccc(C)c2Cl)s1 [Example 28, 2,6-Dichloro-3-methyl-N-[2-[5-(methylthio)-1,3,4-thiadiazol-2-yl]phenyl]benzenamine]
ARBL, activity at the screening dose (5-Lipoxygenase): N
ARBC, % inhibition at given concentration (Cyclooxygenase; Table 2, @ 10 μM): 60%

Compound: Cc1ccc(Cl)c(Nc2ccccc2-c2nnc([S+](C)[O-])s2)c1Cl (stereo not shown) [Example 29, 2,6-Dichloro-3-methyl-N-[2-[5-(methylsulfinyl)-1,3,4-thiadiazol-2-yl]phenyl]benzenamine]
IC50 (5-Lipoxygenase): 3300 nM
IC50 (Cyclooxygenase; Table 2): 8480 nM
